{"source": "patent US7989462B2", "about": "“4-arylamin-or-4-heteroarylamino-quinazolines and analogs as activators of caspases and inducers of apoptosis and the use thereof” (Myrexis, Inc., priority 2003, dated 2011)", "tested_on": "T-47D", "experiment": "Caspase cascade activation in T-47D solid tumor cells (fluorogenic N-(Ac-DEVD)-N'-ethoxycarbonyl-R110 substrate)", "assay_type": "cell-based, Human", "settings": "T-47D (24 hr); for EC50: Homo sapiens, T47D, read-out: Caspase Potency EC50; for Caspase Activity Ratio: ratio of net RFU of test compound to that of control samples", "experimental": "Human breast cancer cell lines T-47D and DLD-1 were grown according to media component mixtures designated by American Type Culture Collection+10% FCS (Invitrogen Corporation), in a 5% CO2-95% humidity incubator at 37° C. T-47D and DLD-1 cells were maintained at a cell density between 50 and 80% confluency at a cell density of 0.1 to 0.6×10^6 cells/mL. Cells were harvested at 600×g and resuspended at 0.65×10^6 cells/mL into appropriate media+10% FCS. An aliquot of 22.5 μL of cells was added to a well of a 384-well microtiter plate containing 2.5 μL of a 10% DMSO in RPMI-1640 media solution containing 0.16 to 100 μM of (2-chloro-quinazolin-4-yl)-(4-dimethylaminophenyl)-methylamine or other test compound (0.016 to 10 μM final). An aliquot of 22.5 μL of cells was added to a well of a 384-well microtiter plate containing 2.5 μL of a 10% DMSO in RPMI-1640 media solution without test compound as the control sample. […] After incubation, the samples were removed from the incubator and 25 μL of a solution containing 14 μM of N-(Ac-DEVD)-N′-ethoxycarbonyl-R110 fluorogenic substrate (Cytovia, Inc.; WO99/18856), 20% sucrose (Sigma), 20 mM DTT (Sigma), 200 mM NaCl (Sigma), 40 mM Na PIPES buffer pH 7.2 (Sigma), and 500 μg/mL lysolecithin (Calbiochem) was added. The samples were mixed by agitation and incubated at room temperature. Using a fluorescent plate reader (Model SPECTRAfluor Plus, Tecan), an initial reading (T=0) was made approximately 1-2 min after addition of the substrate solution, employing excitation at 485 nm and emission at 530 nm, to determine the background fluorescence of the control sample. After the 3 h incubation, the samples were read for fluorescence as above (T=3 h).\nThe Relative Fluorescence Unit values (RFU) were used to calculate the sample readings as follows: RFU(T=3h)−Control RFU(T=0)=Net RFU(T=3h)\nThe activity of caspase cascade activation was determined by the ratio of the net RFU value for (2-chloro-quinazolin-4-yl)-(4-dimethylaminophenyl)-methylamine or other test compounds to that of control samples. The EC50 (nM) was determined by a sigmoidal dose-response calculation (Prism 3.0, GraphPad Software Inc.)."}
{"smiles": "COc1ccc(N(C)c2nc(NC(C)=O)nc3ccccc23)cc1", "note": "[Example 41, (2-Acetamido-quinazolin-4-yl)-(4-methoxy-phenyl)-methylamine]", "values": [{"measurement": "EC50", "result": 27, "unit": "nM"}, {"measurement": "Caspase Activity Ratio", "result": 3.5}]}
{"smiles": "CNc1nc(N(C)c2ccc(OC)cc2)c2cc(N)ccc2n1", "note": "[Example 19, (6-Amino-2-methylamino-quinazolin-4-yl)-(4-methoxyphenyl)-methylamine]", "values": [{"measurement": "EC50", "result": 214, "unit": "nM"}, {"measurement": "Caspase Activity Ratio", "result": 4.3}]}
{"smiles": "COc1ccc(CNc2nc(N(C)c3ccc(OC)cc3)c3ccccc3n2)cc1", "note": "[Example 9]", "values": [{"measurement": "EC50", "result": 258, "unit": "nM"}, {"measurement": "Caspase Activity Ratio", "result": 5.6}]}
{"smiles": "COc1ccc(N(C)c2nc(Cl)nc3ccc([N+](=O)[O-])cc23)cc1", "note": "[Example 11, (2-Chloro-6-nitroquinazolin-4-yl)-(4-methoxyphenyl)-methylamine]", "values": [{"measurement": "EC50", "result": 5080, "unit": "nM"}, {"measurement": "Caspase Activity Ratio", "result": 4.0}]}
{"smiles": "Cc1nc(N(C)c2ccc(NC(N)=O)cc2)c2ccccc2n1", "note": "[Example 5, (2-Methyl-quinazolin-4-yl)-(4-ureido-phenyl)-methylamine]", "values": [{"measurement": "EC50", "result": 32, "unit": "nM"}, {"measurement": "Caspase Activity Ratio", "result": 9.3}]}
{"smiles": "COc1ccc(Nc2ncnc3ccccc23)cc1OC", "note": "[Example 35, (3,4-Dimethoxy-phenyl)-(quinazolin-4-yl)-amine]", "values": [{"measurement": "EC50", "result": "> 10000", "unit": "nM"}, {"measurement": "Caspase Activity Ratio", "result": 1.0}]}
{"smiles": "CNc1ccc(N(C)c2nc(C)nc3ccccc23)cc1", "note": "[Example 7, (2-Methyl-quinazolin-4-yl)-(4-methylamino-phenyl)-methylamine]", "values": [{"measurement": "EC50", "result": 18, "unit": "nM"}, {"measurement": "Caspase Activity Ratio", "result": 3.4}]}
{"smiles": "COc1ccc(N(C)c2nc(NN)nc3ccccc23)cc1", "note": "[Example 32, (2-Hydrazinyl-quinazolin-4-yl)-(4-methoxy-phenyl)-methylamine]", "values": [{"measurement": "EC50", "result": 68, "unit": "nM"}, {"measurement": "Caspase Activity Ratio", "result": 7.4}]}
{"smiles": "COc1ccc(N(C)c2nc(C)nc3ccc([N+](=O)[O-])cc23)cc1OC", "note": "[Example 36, (3,4-Dimethoxy-phenyl)-(2-methyl-6-nitro-quinazolin-4-yl)-methylamine]", "values": [{"measurement": "EC50", "result": 1870, "unit": "nM"}, {"measurement": "Caspase Activity Ratio", "result": 4.0}]}
{"smiles": "COc1ccc(N(C)c2nc(C)nc3ccc(N(C)C)cc23)cc1", "note": "[Example 30, (6-Dimethylamino-2-methyl-quinazolin-4-yl)-(4-methoxy-phenyl)-methylamine]", "values": [{"measurement": "EC50", "result": 382, "unit": "nM"}, {"measurement": "Caspase Activity Ratio", "result": 6.4}]}
{"smiles": "Cc1nc(N(C)c2ccc(N(C)C)nc2)c2ccccc2n1", "note": "[Example 27, (2-Dimethylamino-pyridine-5-yl)-(2-methyl-quinazolin-4-yl)-methylamine]", "values": [{"measurement": "EC50", "result": 14, "unit": "nM"}, {"measurement": "Caspase Activity Ratio", "result": 9.0}]}
{"smiles": "COC(=O)N(C)c1ccc(N(C)c2nc(C)nc3ccccc23)cc1", "note": "[Example 8, (2-Methyl-quinazolin-4-yl)-[4-(N-methyl-methoxycarbonylamino)-phenyl]-methylamine]", "values": [{"measurement": "EC50", "result": 558, "unit": "nM"}, {"measurement": "Caspase Activity Ratio", "result": 8.0}]}
{"smiles": "CC(=O)Nc1ccc(N(C)c2nc(C)nc3ccccc23)cc1", "note": "[Example 1, (4-Acetamido-phenyl)-(2-methyl-quinazolin-4-yl)-methylamine]", "values": [{"measurement": "EC50", "result": 47, "unit": "nM"}, {"measurement": "Caspase Activity Ratio", "result": 8.1}]}
{"smiles": "CNc1nc(N(C)c2ccc(N(C)C)cc2)c2ccccc2n1", "note": "[Example 15, (2-Methylamino-quinazolin-4-yl)-(4-dimethylaminophenyl)-methylamine]", "values": [{"measurement": "EC50", "result": 39, "unit": "nM"}, {"measurement": "Caspase Activity Ratio", "result": 3.9}]}
{"smiles": "COc1ccc(N(C)c2nc(N(C)C)nc3ccc([N+](=O)[O-])cc23)cc1", "note": "[Example 14, (2-Dimethylamino-6-nitroquinazolin-4-yl)-(4-methoxyphenyl)-methylamine]", "values": [{"measurement": "EC50", "result": 2360, "unit": "nM"}, {"measurement": "Caspase Activity Ratio", "result": 4.2}]}
{"smiles": "CNc1nc(N(C)c2ccc(OC)cc2)c2cc([N+](=O)[O-])ccc2n1", "note": "[Example 17, (2-Methylamino-6-nitroquinazolin-4-yl)-(4-methoxyphenyl)-methylamine]", "values": [{"measurement": "EC50", "result": 619, "unit": "nM"}, {"measurement": "Caspase Activity Ratio", "result": 3.7}]}
{"smiles": "Cc1nc(Nc2ccc(N(C)C)nc2)c2ccccc2n1", "note": "[Example 26, (2-Dimethylamino-pyridine-5-yl)-(2-methyl-quinazolin-4-yl)-amine]", "values": [{"measurement": "EC50", "result": "> 10000", "unit": "nM"}, {"measurement": "Caspase Activity Ratio", "result": 1.3}]}
{"smiles": "COc1ccc(N(C)c2nc(C)nc3ccc(N(C)C(C)=O)cc23)cc1", "note": "[Example 40, (6-N-methyl-acetamido-2-methyl-quinazolin-4-yl)-(4-methoxy-phenyl)-methylamine]", "values": [{"measurement": "EC50", "result": 290, "unit": "nM"}, {"measurement": "Caspase Activity Ratio", "result": 2.7}]}
{"smiles": "COC(=O)Nc1ccc(N(C)c2nc(C)nc3ccccc23)cc1", "note": "[Example 4, (2-Methyl-quinazolin-4-yl)-(4-methoxycarbonylamino-phenyl)-methylamine]", "values": [{"measurement": "EC50", "result": 73, "unit": "nM"}, {"measurement": "Caspase Activity Ratio", "result": 8.5}]}
{"smiles": "CSc1ccc(N(C)c2nc(C)nc3ccccc23)cc1", "note": "[Example 21, (4-Methylthio-phenyl)-(2-methyl-quinazolin-4-yl)-methylamine]", "values": [{"measurement": "EC50", "result": 4, "unit": "nM"}, {"measurement": "Caspase Activity Ratio", "result": 7.5}]}
{"smiles": "COc1ccc(N(C)c2nc(C)nc3ccc(NC(C)=O)cc23)cc1", "note": "[Example 31, (6-Acetamido-2-methyl-quinazolin-4-yl)-(4-methoxy-phenyl)-methylamine]", "values": [{"measurement": "EC50", "result": 796, "unit": "nM"}, {"measurement": "Caspase Activity Ratio", "result": 3.2}]}
{"smiles": "COc1ccc(Nc2nc(C)nc3ccccc23)cc1OC", "note": "[Example 24, (3,4-Dimethoxy-phenyl)-(2-methyl-quinazolin-4-yl)-amine]", "values": [{"measurement": "EC50", "result": "> 10000", "unit": "nM"}, {"measurement": "Caspase Activity Ratio", "result": 1.3}]}
{"smiles": "Cc1nc(N(C)c2ccc(N(C)C)cc2)c2cc([N+](=O)[O-])ccc2n1", "note": "[Example 10, (2-Methyl-6-nitroquinazolin-4-yl)-(4-dimethylaminophenyl)-methylamine]", "values": [{"measurement": "EC50", "result": 979, "unit": "nM"}, {"measurement": "Caspase Activity Ratio", "result": 2.6}]}
{"smiles": "CC(=O)N(C)c1ccc(N(C)c2nc(C)nc3ccccc23)cc1", "note": "[Example 6, (2-Methyl-quinazolin-4-yl)-(N-methyl-4-acetamido-phenyl)-methylamine]", "values": [{"measurement": "EC50", "result": 210, "unit": "nM"}, {"measurement": "Caspase Activity Ratio", "result": 9.2}]}
{"smiles": "COc1ccc(N(C)c2nc(C)nc3ccccc23)cc1OC", "note": "[Example 25, (3,4-Dimethoxy-phenyl)-(2-methyl-quinazolin-4-yl)-methylamine]", "values": [{"measurement": "EC50", "result": 9, "unit": "nM"}, {"measurement": "Caspase Activity Ratio", "result": 10.2}]}
{"smiles": "COc1cc(Nc2nc(C)nc3ccccc23)cc(OC)c1OC", "note": "[Example 38, (2-Methyl-quinazolin-4-yl)-(3,4,5-trimethoxy-phenyl)-amine]", "values": [{"measurement": "EC50", "result": "> 10000", "unit": "nM"}, {"measurement": "Caspase Activity Ratio", "result": 0.9}]}
{"smiles": "COc1ccc(N(C)c2nc(N(C)C(C)=O)nc3ccccc23)cc1", "note": "[Example 28, (4-Methoxy-phenyl)-(2-N-methylacetamido-quinazolin-4-yl)-methylamine]", "values": [{"measurement": "EC50", "result": 7, "unit": "nM"}, {"measurement": "Caspase Activity Ratio", "result": 4.0}]}
{"smiles": "CSc1ccc(Nc2nc(C)nc3ccccc23)cc1", "note": "[Example 20, (4-Methylthio-phenyl)-(2-methyl-quinazolin-4-yl)-amine]", "values": [{"measurement": "EC50", "result": "> 10000", "unit": "nM"}, {"measurement": "Caspase Activity Ratio", "result": 1.1}]}
{"smiles": "Cc1nc(N(C)c2ccc3c(c2)nnn3C)c2ccccc2n1", "note": "[Example 23, (1-Methyl-1H-benzotriazol-5-yl)-(2-methyl-quinazolin-4-yl)-methylamine]", "values": [{"measurement": "EC50", "result": "> 10000", "unit": "nM"}, {"measurement": "Caspase Activity Ratio", "result": 1.1}]}
{"smiles": "COc1ccc(Nc2nc(C)nc3ccc([N+](=O)[O-])cc23)cc1OC", "note": "[Example 34, (3,4-Dimethoxy-phenyl)-(2-methyl-6-nitro-quinazolin-4-yl)-amine]", "values": [{"measurement": "EC50", "result": "> 10000", "unit": "nM"}, {"measurement": "Caspase Activity Ratio", "result": 1.1}]}
{"smiles": "Cc1nc(N(C)c2ccc(N(C)C)cc2)c2cc(N)ccc2n1", "note": "[Example 12, (6-Amino-2-methyl-quinazolin-4-yl)-(4-dimethylaminophenyl)-methylamine]", "values": [{"measurement": "EC50", "result": 33, "unit": "nM"}, {"measurement": "Caspase Activity Ratio", "result": 3.8}]}
{"smiles": "CC(=O)N(C)c1nc(N(C)c2ccc(N(C)C)cc2)c2ccccc2n1", "note": "[Example 16, [2-(N-Methyl-acetamido)-quinazolin-4-yl]-(4-dimethylaminophenyl)-methylamine]", "values": [{"measurement": "EC50", "result": 14, "unit": "nM"}, {"measurement": "Caspase Activity Ratio", "result": 2.4}]}
{"smiles": "COC(=O)N(C)c1nc(N(C)c2ccc(OC)cc2)c2ccccc2n1", "note": "[Example 29, (4-Methoxy-phenyl)-(2-N-methyl-methoxycarbonylamino-quinazolin-4-yl)-methylamine]", "values": [{"measurement": "EC50", "result": 34, "unit": "nM"}, {"measurement": "Caspase Activity Ratio", "result": 9.6}]}
{"smiles": "COc1ccc(N(C)c2nc(N(C)C)nc3ccc(N)cc23)cc1", "note": "[Example 18, (6-Amino-2-dimethylamino-quinazolin-4-yl)-(4-methoxyphenyl)-methylamine]", "values": [{"measurement": "EC50", "result": 221, "unit": "nM"}, {"measurement": "Caspase Activity Ratio", "result": 4.7}]}
{"smiles": "CN(C)c1ccc(N(C)c2nc(Cl)nc3ccccc23)cc1", "note": "[Example 13, (2-Chloro-quinazolin-4-yl)-(4-dimethylaminophenyl)-methylamine]", "values": [{"measurement": "EC50", "result": 4, "unit": "nM"}, {"measurement": "Caspase Activity Ratio", "result": 4.2}]}
{"smiles": "Cc1nc(Nc2ccc(N(C)C)cc2)c2ccccc2n1", "note": "[Example 22, (4-Dimethylamino-phenyl)-(2-methyl-quinazolin-4-yl)-amine]", "values": [{"measurement": "EC50", "result": 2860, "unit": "nM"}, {"measurement": "Caspase Activity Ratio", "result": 8.7}]}
